Reference: patent US8354400B2, “Benzoxazole compounds and methods of use” (Eisai R&D Co., Ltd., priority 2008, dated 2013)
Entries after “also recorded” stand apart in the source; their conditions may differ.

What was measured:
human TLR9 = target: T1, human TLR9 (Homo sapiens, UniProt Q9NR96); experiment: Primary assay: HEK/TLR9 activation (NF-kB luciferase reporter, Oligo CpG 2006 stimulation); type: cell-based; settings: HEK293 transfected with human TLR9 and NF-kB luciferase; compound 30 min before Oligo CpG 2006; overnight; read-out: HEK/TLR9 IC50
T1 construct: expressed in transfected cells; host or cells: HEK293 (ATCC No. CRP-1573 [sic])
T1 sequence (Q9NR96 26-1032): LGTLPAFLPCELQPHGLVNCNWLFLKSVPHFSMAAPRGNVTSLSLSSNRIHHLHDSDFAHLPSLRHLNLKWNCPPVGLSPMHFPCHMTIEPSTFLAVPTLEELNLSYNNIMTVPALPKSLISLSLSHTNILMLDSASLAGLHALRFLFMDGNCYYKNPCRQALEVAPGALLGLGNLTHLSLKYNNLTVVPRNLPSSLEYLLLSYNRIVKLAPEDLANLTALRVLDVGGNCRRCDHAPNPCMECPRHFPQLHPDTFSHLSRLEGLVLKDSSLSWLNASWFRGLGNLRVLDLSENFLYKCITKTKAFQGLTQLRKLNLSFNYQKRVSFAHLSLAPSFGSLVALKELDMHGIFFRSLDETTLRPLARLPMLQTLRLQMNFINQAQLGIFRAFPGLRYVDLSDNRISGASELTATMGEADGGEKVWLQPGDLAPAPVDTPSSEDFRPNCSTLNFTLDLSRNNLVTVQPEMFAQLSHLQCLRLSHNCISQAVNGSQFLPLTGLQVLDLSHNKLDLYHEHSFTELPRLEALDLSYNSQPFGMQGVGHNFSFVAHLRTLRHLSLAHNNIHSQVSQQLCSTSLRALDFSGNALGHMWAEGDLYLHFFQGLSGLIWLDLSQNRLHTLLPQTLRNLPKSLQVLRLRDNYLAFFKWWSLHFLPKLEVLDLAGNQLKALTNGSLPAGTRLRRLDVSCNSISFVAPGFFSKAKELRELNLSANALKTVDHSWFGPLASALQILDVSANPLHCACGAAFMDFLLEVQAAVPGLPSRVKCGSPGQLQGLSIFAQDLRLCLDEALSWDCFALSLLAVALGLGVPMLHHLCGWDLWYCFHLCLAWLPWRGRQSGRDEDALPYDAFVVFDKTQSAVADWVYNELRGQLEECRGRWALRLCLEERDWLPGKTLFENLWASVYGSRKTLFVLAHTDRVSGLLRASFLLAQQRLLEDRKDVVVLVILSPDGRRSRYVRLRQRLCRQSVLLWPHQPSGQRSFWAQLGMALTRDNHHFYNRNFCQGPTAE
Source text: A. Primary Assay. The primary assay involved transfecting human embryonic kidney epithelial (HEK) cells with TLR9. More specifically, HEK293 […] cells (ATCC No. CRP-1573, American Type Culture Collection, Manassas, Va.) were transfected with pcDNA3.1D/V5-His-TOPO® plasmid (Invitrogen, Carlsbad, Calif.) encoding human TLR9 (directly inserted as a Tag polymerase-amplified PCR product) and firefly luciferase under the control of three NF-kB binding sites contained in the E-selectin-1 promoter, which was cloned into a pGL3-Enhancer Vector (Promega Corp, Madison, Wis.). Each compound was added to cells 30 min. before stimulation with Oligo CpG 2006, a synthetic phosphorothioate oligonucleotide (Hartmann et al., J Immunol. 164:1617-24 (2000)), with nucleotide sequence 5′-TCGTCGTTTTGTCGTTTTGTCGTT-3′ (SEQ ID NO:1). The cells were incubated overnight at 37° C. The luciferase substrate Steady-Glo® (Promega) was added to the wells, and luminescence was measured to determine the extent of TLR9-driven gene activation. The luminescence data was used to calculate an IC50 for each sample. The IC50 is defined as the concentration of compound that suppresses the luminescence to 50% of that observed in the absence of compound, in other words, with full stimulation.

[1] = test system: mouse spleen IL-6 production in response to Oligo CpG 1668; experiment: Splenocyte CpG 1668 assay (IL-6 ELISA); type: cell-based; settings: mouse splenocytes, Oligo CpG 1668, 72 hrs
Protocol: (2) Splenocyte CpG 1668 Assay: Some of the compounds tested in the primary assay were also assayed for suppression of mouse spleen IL-6 production in response to stimulation with Oligo CpG 1668, a synthetic phosphorothioate oligonucleotide (Krieg et al. Nature. 374:546-9 (1995)), with nucleotide sequence [NT] (SEQ ID NO:2). Each compound was added to dissociated splenocytes before addition of stimulatory oligonucleotide. Cells were stimulated in culture for 72 hrs and the supernatant was removed for ELISA analysis of IL-6 level. Here the IC50 is defined as the concentration of compound that suppresses cytokine production to 50% of that observed in the absence of compound, i.e., full stimulation.

[2] = test system: dissociated mouse splenocytes; experiment: Spleen CellTiter-Glo viability assay; type: cell-based; settings: Splenocyte, 72 hours, viability (ATP)
Protocol: (3) Spleen CT Glo Assay: To determine if compounds had adverse effects on living cells, dissociated mouse splenocytes were incubated with some of the compounds for 72 hours. At the end of the incubation Celliter-Glo™ reagent (Promega Corporation, Madison, Wis.) was added and luminescence was read per manufacturer's instructions. This reagent measures ATP as an indication of cell metabolism. Dead cells will not produce signal. IC50 is defined as the concentration of compound that suppresses viability to 50% of that observed in the absence of compound. The few compounds that measurably affected viability did so at concentrations far above those that affected cytokine release in response to TLR9 stimulation.

[3] = test system: serum IL-6 after s.c. oligo CpG 1668 challenge; experiment: In vivo short term CpG stimulation assay (serum IL-6); set-up: species or system mice; settings: Mus musculus, po, 2 h, mice, oral in water, 20 mg/kg, s.c. 30 micrograms oligo CpG 1668 within 90 minutes, serum two hours later; repeat assays separated by commas; read-out: Percent short-term IL-6 suppression
Protocol: Short Term CpG Stimulation Assay: Compounds identified as having potency in the HEK/TLR9 and splenocyte CpG 1668 assays described in Example 9, above, were tested in an in vivo short term CpG stimulation assay. Mice were orally administered compound in water, and challenged within 90 minutes by subcutaneous (s.c.) injection of 30 micrograms of oligo CpG 1668. Two hours later serum was taken and assayed for IL-6 using ELISA analysis. Results from assays repeated on different dates are set forth as multiple numbers separated by commas.

MRL/lpr mice = experiment: MRL/lpr spontaneous lupus model, Experiment 2; type: in vivo; settings: for serum anti-dsDNA levels: MRL/lpr mice, Experiment 2, doses per Table 4
Protocol: In this SLE experiment, dosing, groups were as described in Table 4 below. Two dose levels of Compound 23 were compared to HCQ and cyclophosphamide (Cytoxan®). HCQ and cyclophosphamide are currently used in the treatment of cutaneous and systemic lupus, respectively. […] Sera were assayed at a 1:600 dilution in PBS. (Mouse Anti-dsDNA Total Ig Qualitative ELISA kits, Alpha Diagnostic International). Dosing was conducted by either oral (p.o.) or intraperitoneal (i.p.) administration.

human TLR7 = target: T2, human TLR7 (Homo sapiens, UniProt Q9NYK1); experiment: HEK/TLR7 activation assay (R848 stimulation); type: cell-based; settings: HEK cells transfected with human TLR7
T2 construct: expressed in transfected cells; host or cells: HEK cell line (HEK293, as in the primary assay)
T2 sequence (Q9NYK1 27-1049): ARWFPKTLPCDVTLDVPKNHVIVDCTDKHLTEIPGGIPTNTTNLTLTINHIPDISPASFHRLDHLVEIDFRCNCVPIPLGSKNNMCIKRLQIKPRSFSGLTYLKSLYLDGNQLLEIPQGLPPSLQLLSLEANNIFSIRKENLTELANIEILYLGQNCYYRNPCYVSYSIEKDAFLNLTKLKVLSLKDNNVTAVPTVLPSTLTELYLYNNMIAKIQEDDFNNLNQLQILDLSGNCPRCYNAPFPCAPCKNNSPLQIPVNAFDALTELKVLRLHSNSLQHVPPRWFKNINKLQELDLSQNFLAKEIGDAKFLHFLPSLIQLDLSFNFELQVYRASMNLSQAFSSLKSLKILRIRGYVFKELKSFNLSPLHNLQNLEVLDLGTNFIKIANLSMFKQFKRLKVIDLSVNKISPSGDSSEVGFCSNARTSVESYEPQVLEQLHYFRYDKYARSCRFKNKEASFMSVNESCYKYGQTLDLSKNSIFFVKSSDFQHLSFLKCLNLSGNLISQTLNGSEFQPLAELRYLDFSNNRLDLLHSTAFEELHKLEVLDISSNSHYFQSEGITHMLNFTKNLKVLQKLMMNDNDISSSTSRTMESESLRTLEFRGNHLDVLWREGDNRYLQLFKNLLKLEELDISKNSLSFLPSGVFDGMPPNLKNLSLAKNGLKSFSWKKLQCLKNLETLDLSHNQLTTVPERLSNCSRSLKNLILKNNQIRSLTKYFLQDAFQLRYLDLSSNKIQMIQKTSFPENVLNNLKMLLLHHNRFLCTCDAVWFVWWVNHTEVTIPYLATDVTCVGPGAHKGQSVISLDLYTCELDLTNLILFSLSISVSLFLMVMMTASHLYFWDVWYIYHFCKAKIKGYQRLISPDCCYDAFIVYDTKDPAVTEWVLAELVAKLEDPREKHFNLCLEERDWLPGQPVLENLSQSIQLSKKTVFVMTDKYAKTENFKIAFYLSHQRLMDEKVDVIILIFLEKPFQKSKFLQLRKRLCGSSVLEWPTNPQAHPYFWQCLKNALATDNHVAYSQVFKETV
Protocol: (1) HEK/TLR7Activation Assay: The same compounds were tested in the same way as the primary assay with the following differences. The plasmid used to transfect the HEK cell line encoded for human TLR7 instead of TLR9, and R848 was used to stimulate the cells instead of Oligo CpG 2006.

SMILES	IC50 (human TLR9) [µM]	IC50 [1] [µM]	IC50 (human TLR7) [µM]	IC50 [2] [µM]	inhibition in vivo at 20 mg/kg [3] [%]	serum anti-dsDNA levels (MRL/lpr mice)	difference in serum anti-dsDNA vs. vehicle by ANOVA (MRL/lpr mice; 8 and 12 week dosing points)
CCN(CCO)CCCC(C)Nc1ccnc2cc(Cl)ccc12 (centres unmarked) [hydroxychloroquine]						no detectable effect	
O=P1(N(CCCl)CCCl)NCCCO1 (centres unmarked) [Cyclophosphamide, cyclophosphamide]						consistent suppression; also recorded: suppressed anti-dsDNA	statistically significant
CN(C)CCCOc1ccc2nc(-c3ccc(OCCCN(C)CCOCCOCCN(C)C)cc3)oc2c1 [Compound 35]	0.029	0.04	1.4		38		

The next lines start with results.

IC50 (human TLR9) [µM]	IC50 [1] [µM]	IC50 (human TLR7) [µM]	SMILES	IC50 [2] [µM]	inhibition in vivo at 20 mg/kg [3] [%]	serum anti-dsDNA levels (MRL/lpr mice)	difference in serum anti-dsDNA vs. vehicle by ANOVA (MRL/lpr mice; 8 and 12 week dosing points)
0.0124	0.042		COC[C@H]1CCCN1CCCOc1ccc(-c2nc3ccc(OCCCN4CCC[C@@H]4COC)cc3o2)cc1 [Compound 26]	> 10	81		
0.004		0.8	CN(C)CCCOc1ccc2nc(-c3ccc(OCCCN(C)CCCN(C)C)cc3)oc2c1 [Compound 34]		26		
